# From patent US20110045101A1, “FUNGICIDAL SUBSTITUTED AZOLES” (E.I. Du Pont De Nemours and Company, priority 2009, published 2011)
# Legend:
# [1] = system: Botrytis cinerea; test: Test C: tomato Botrytis on tomato seedlings, sprayed the day before inoculation, visual disease rating; assay type: in vivo; settings: Botrytis cinerea, 120 h, 100 = 100% disease control; for pest or weed control at 200 ppm: 0 = no control relative to controls
# How it was run: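 Compounds were dissolved in acetone (3% of final volume), then suspended in 50/50 acetone/purified water containing 250 ppm polyhydric alcohol ester surfactant. Suspensions were sprayed to run-off on tomato seedlings at 200 ppm, equivalent to 500 g/ha, or at 40 ppm where marked.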
# [2] = system: Alternaria solani; test: Test D: tomato early blight, sprayed the day before inoculation, visual disease rating; assay type: in vivo; settings: Alternaria solani, 168 h, 100 = 100% disease control; for pest or weed control at 200 ppm: 0 = no control relative to controls
# How it was run: (§1)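 Compounds were dissolved in acetone (3% of final volume), then suspended in 50/50 acetone/purified water with 250 ppm Trem® 014 surfactant. Suspensions at 200 ppm (some at 40 ppm) were sprayed to run-off, 200 ppm being equivalent to 500 g/ha.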
# [3] = system: Septoria nodorum; test: Test F: wheat glume blotch on wheat seedlings, sprayed the day before inoculation, visual disease rating; assay type: in vivo; settings: Parastagonospora nodorum, 264 h, 100 = 100% disease control; for pest or weed control at 200 ppm: 0 = no control relative to controls
# How it was run: as §1
# [4] = system: Septoria tritici; test: Test G: wheat leaf blotch on wheat seedlings, sprayed the day before inoculation, visual disease rating; assay type: in vivo; settings: Zymoseptoria tritici, 504 h, 100 = 100% disease control; for pest or weed control at 200 ppm: 0 = no control relative to controls
# How it was run: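 Compounds dissolved in acetone (3% of final volume), then suspended in 50/50 acetone/water with 250 ppm Trem® 014 and sprayed to run-off on seedlings at 200 ppm (≈500 g/ha) or 40 ppm where marked. Inoculation with spores followed next day; visual rating after 48 h saturated at 24° C plus 19 days at 20° C.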
# [5] = system: Puccinia recondita f. sp. tritici; test: Test I: wheat leaf rust on wheat seedlings, sprayed the day before inoculation, visual disease rating; assay type: in vivo; settings: Puccinia recondita, 168 h, 100 = 100% disease control; for pest or weed control at 200 ppm: 0 = no control relative to controls
# How it was run: as §1
# [6] = system: Erysiphe graminis f. sp. tritici; test: Test J: wheat powdery mildew on wheat seedlings, sprayed the day before inoculation, visual disease rating; assay type: in vivo; settings: Blumeria graminis, 168 h, 100 = 100% disease control; for pest or weed control at 200 ppm: 0 = no control relative to controls
# How it was run: as §1
# [7] = system: Rhizoctonia solani; test: Test B: turf brown patch on bentgrass seedlings, sprayed the day before inoculation, visual disease rating; assay type: in vivo; settings: 200 ppm; 100 = 100% disease control, 0 = no control relative to controls
# Excerpt: General protocol for preparing test suspensions for Tests A-J: The test compounds were first dissolved in acetone in an amount equal to 3% of the final volume and then suspended at the desired concentration (in ppm) in acetone and purified water (50/50 mix) containing 250 ppm of the surfactant Trem® 014 (polyhydric alcohol esters). The resulting test suspensions were then used in tests A-J. Spraying a 200 ppm test suspension to the point of run-off on the test plants was the equivalent of a rate of 500 g/ha. […] The test suspension was sprayed to the point of run-off on bentgrass (Agrostis sp.) seedlings. […] A dash (-) indicates no test results. All results are for 200 ppm except where followed by “*”, which indicates 40 ppm.
# [8] = system: Plasmopara viticola; test: Test A: grape downy mildew, test suspension sprayed after inoculation of grape seedlings, visual disease rating; assay type: in vivo; settings: 200 ppm; 100 = 100% disease control, 0 = no control relative to controls
# Excerpt: General protocol for preparing test suspensions for Tests A-J: The test compounds were first dissolved in acetone in an amount equal to 3% of the final volume and then suspended at the desired concentration (in ppm) in acetone and purified water (50/50 mix) containing 250 ppm of the surfactant Trem® 014 (polyhydric alcohol esters). The resulting test suspensions were then used in tests A-J. Spraying a 200 ppm test suspension to the point of run-off on the test plants was the equivalent of a rate of 500 g/ha. […] Grape seedlings were inoculated with a spore suspension of Plasmopara viticola (the causal agent of grape downy mildew) and incubated in a saturated atmosphere at 20° C. for 24 h. After a short drying period, the grape seedlings were sprayed with the test suspension to the point of run-off and then moved to a growth chamber at 20° C. for 5 days, after which time the grape seedlings were placed back into a saturated atmosphere at 20° C. for 24 h. Upon removal, visual disease ratings were made. […] A dash (-) indicates no test results.
# [9] = system: Phytophthora infestans; assay type: in vivo; settings: 200 ppm; 100 = 100% disease control, 0 = no control relative to controls
SMILES,pest or weed control at 40 ppm ([1]; 40 ppm (marked *)) [%],pest or weed control at 40 ppm ([2]; 40 ppm (marked *)) [%],pest or weed control at 40 ppm ([3]; 40 ppm (marked *)) [%],pest or weed control at 40 ppm ([4]; 40 ppm (marked *)) [%],pest or weed control at 40 ppm ([5]; 40 ppm (marked *)) [%],pest or weed control at 40 ppm ([6]; 40 ppm (marked *)) [%],melting point [°C],Test B disease control rating [7] [%],pest or weed control at 200 ppm [1] [%],pest or weed control at 200 ppm [2] [%],pest or weed control at 200 ppm [3] [%],pest or weed control at 200 ppm [4] [%],pest or weed control at 200 ppm [5] [%],pest or weed control at 200 ppm [6] [%],Test A disease control rating [8] [%],Test E disease control rating [9] [%]
"Fc1cc(F)c(-c2c(Cl)ncn2-c2ccc(Cl)cc2)c(F)c1 [Compound 1, 4-chloro-1-(4-chlorophenyl)-5-(2,4,6-trifluorophenyl)-1H-imidazole]",99,94,0,93,16,99,102 to 104,,,,,,,,,
"Fc1cccc(F)c1-c1c(Cl)nc(Cl)n1-c1ccc(Cl)cc1 [Compound 3, 2,4-dichloro-1-(4-chlorophenyl)-5-(2,6-difluorophenyl)-1H-imidazole]",,,,,,,123 to 125,99,99,100,99,100,99,100,,
"Fc1cc(F)c(-c2c(Cl)nc(Cl)n2-c2ccc(Cl)cc2)c(F)c1 [Compound 6, 2,4-dichloro-1-(4-chlorophenyl)-5-(2,4,6-trifluorophenyl)-1H-imidazole]",,,,,,,112 to 119,99,99,100,95,100,100,100,0,0
"Cc1nc(Cl)c(-c2c(F)cccc2F)n1-c1ccc(Cl)cc1 [Compound 2, 4-chloro-1-(4-chlorophenyl)-5-(2,6-difluorophenyl)-2-methyl-1H-imidazole]",,,,,,,143 to 145,65,99,100,100,100,100,100,,
"Cc1nc(Cl)c(-c2ccc(F)cc2)n1-c1ccc(Cl)cc1 [Compound 5, 4-chloro-1-(4-chlorophenyl)-5-(4-fluorophenyl)-2-methyl-1H-imidazole]",,,,,,,,38,98,99,0,100,88,99,0,0
